In patent US20240025886A1, “INHIBITORS OF IGF2BP1-RNA BINDING” (YISSUM RESEARCH DEVELOPMENT COMPANY OF THE HEBREW …, priority 2020, published 2024):

Key:
Type in all cases: cell-based, human
H1299 cells [1] = assay: Real-time PCR of steady state RNA levels in H1299 cells
Procedure: Primers were calibrated for several Igf2bp1 RNA targets (Table 3): […]
Cells were grown for 12 hours in 12 well plates prior to incubation with the compound at different concentrations for an additional 12 or 24 hours. Total RNA was then extracted using EZ-RNA total RNA isolation kit (Biological Industries) and cDNA prepared from the RNA using the First Strand cDNA Synthesis kit (Quanta bio). Real time PCR was performed with Fast SYBR Green Master Mix (Thermo Fisher Scientific), and cDNA expression analyzed with the Bio-Rad CFX Manager 3.1.

H1299 cells [2] = assay: Wound healing (cell migration) assay, H1299 cells
Procedure: Cells were seeded in 96 IncuCyte® ImageLock plates (20×10^3 cells per well) for 24 hours, to a near confluency of 95%, before the addition of increasing concentrations of compound. After a further 24 hours, wells were scratched using the IncuCyte® 96-well WoundMaker Tool, and the cells cultured for an additional 48 hours using the IncuCyte® S3 Live-Cell Analysis System (Essen BioScience). The plate was imaged at increments of 120 minutes for a period of 48 hours, and then analyzed for relative wound healing.

H1299 cells [3] = assay: Growth in soft agar, H1299 cells; design: dose or concentration left out as unconfirmed; conditions: H1299, 7773
Procedure: Cells were grown for 12 hours in 6 well plates prior to incubation with the compound or DMSO for an additional 48 hours, 2000 cells were suspended in 0.3% agar-complete medium and then seeded in triplicates onto a 0.6% agar-complete medium base in a 6 well plate. After one week, the colonies were fed with 0.3% agar-complete medium, and after 2 additional weeks, imaged and quantified.

Q: O=C(c1ccc(Cn2cnnn2)cc1)N1CCCC(Nc2ccc3c(c2)OCO3)C1 (stereo not drawn) [Compound 7773] was tested. Which “Steady state level of Kras mRNA” value (H1299 cells [1]; H1299, 20 mM 7773, 12 hours) did it give?
A: Its value is “already reduced”.

Q: What about the “Steady state levels of CD44, Kras, cMyc and SRF RNA” value (H1299 cells [1]; H1299, 20 mM 7773, 24 hours) of the same compound?
A: Its value is “significantly reduced”.

Q: What about the “Steady state levels of control RNAs (not targets of Igf2bp1)” value (H1299 cells [1]; H1299, 20 mM 7773, 24 hours) of the same compound?
A: Its value is “not significantly affected”.

Q: What about the “Inhibition of wound healing” value (H1299 cells [2]; H1299, 5 mM 7773) of the same compound?
A: The value was “discernible inhibition”.

Q: What about the “Inhibition of wound healing” value (H1299 cells [2]; H1299, 20 mM 7773) of the same compound?
A: Its value is “strongly inhibited”.

Q: And the “Ability to form colonies in soft agar” value (H1299 cells [3])?
A: Its value is “dramatically inhibited”.
